The target in assay [1] is T1, CB1 receptor (Homo sapiens, UniProt P21554).
T1 construct: expressed in transfected cells
Description: cell-based. An excerpt:
The CB1 and CB2 receptors are G-protein coupled receptors (GPCR), which influence cell function via the Gi-protein. These receptors modulate the activity of intracellular adenylate cyclase, which in turn produces the intracellular signal messenger cyclic-AMP (cAMP).
At baseline, or during non-ligand bound conditions, these receptors are constitutively active and tonically suppress adenylate cyclase activity. The binding of an agonist causes further receptor activation and produces additional suppression of adenylate cyclase activity. The binding of an inverse agonist inhibits the constitutive activity of the receptors and results in an increase in adenylate cyclase activity.
By monitoring intracellular adenylate cyclase activity, the ability of compounds to act as agonists or inverse agonists can be determined.
Test compounds were evaluated in SK-N-MC cells which, using standard transfection procedures, were stably transfected with human cDNA for pcDNA3-CRE β-gal and pcDNA3 CB1 receptor (human) or pcDNA3 CB2 receptor (human). By expressing CRE β-gal, the cells produced β-galactosidase in response to CRE promoter activation by cAMP. Cells expressing CRE β-gal and either the human CB1 or CB2 receptor will produce less β-galactosidase when treated with a CB1/CB2 agonist and will produce more β-galactosidase when treated with a CB1/CB2 inverse agonist.
The cells were grown in 96-well plates under standard cell culture conditions at 37° C. in a 5% CO2 atmosphere and culture media (wherein the media was supplemented with 2 mM L-glutamine, […] sodium pyruvate, 10% FBS (fetal bovine serum) and antibiotics).
The change in forskolin induced β-galactosidase activity was determined by setting a vehicle treated cell's activity value at 100% and expressing the β-galactosidase activity measured in a corresponding compound treated cell as a percent of the vehicle treated cell activity.
The EC50 value for functional activity for compounds tested was calculated by linear regression and was obtained from studies in which varying compound concentrations were used.
Where an EC50 value was not obtained for a test compound, the value shown (in %) represents change in functional activity and was obtained from a study in which one compound concentration was used.

Assay [2] has as its target T1, CB1 receptor. Description: Binding assay for CB1 agonists or inverse agonists (SK-N-MC membranes, [3H]-CP-55,940). To be noted: for CB1 receptor binding average percent inhibition: value shown is an average percent inhibition (footnote 5), concentration not given. In a few lines: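 Radioligand displacement: [3H]-CP-55,940 at […], 90 min at 30° C, pH 7.5 Tris buffer with 0.5 mg/mL fatty-acid-free BSA, using semi-purified membranes of human-CB1-transfected SK-N-MC cells. Bound counts collected on GF/C filters, 10 uM WIN 55,212 for non-specific; IC50 from percent inhibition over several concentrations.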

For another assay, the target named is T2, CB2 receptor (Homo sapiens, UniProt P34972).
T2 construct: expressed in transfected cells
Description: Binding assay for CB2 agonists or inverse agonists (SK-N-MC membranes, [3H]-CP-55,940). To be noted: for CB2 receptor binding percent inhibition: test concentration not stated. The procedure, abridged:
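IC50 came from percent-inhibition data over several compound concentrations, fitted by linear regression. Binding used semi-purified membranes of human CB2-transfected SK-N-MC cells, 90 min at 30 °C, pH 7.5 Tris-HCl with MgCl2, EDTA and BSA, then filtration and scintillation counting.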

Where [3] appears, read: CB1 Receptor Functional Inverse Agonist EC50, forskolin induced β-galactosidase activity, SK-N-MC cells.
Where [4] appears, read: Cannabinoid CB1 Receptor Binding IC50, calculated by linear regression from percent inhibition at various test concentrations.
[5] abbreviates: read-out: CB1 receptor binding percent inhibition, test concentration 1 μM (footnote 1).
The mark [6] stands for this setting: forskolin induced β-galactosidase activity, SK-N-MC cells, read-out: CB1 Receptor Functional Inverse Agonist EC50.
Where [7] appears, read: calculated by linear regression from percent inhibition at various test concentrations, read-out: Cannabinoid CB1 Receptor Binding IC50.
Setting [8] is: test concentration 1 μM (footnote 1), read-out: CB2 receptor binding percent inhibition.

By EC50 is commonly meant the midpoint of the concentration-response curve. For orientation: IC50 means the concentration at which inhibition is half-maximal.

Like-named read-outs stand apart in the source and are kept apart here.

T2 sequence (P34972 whole entry): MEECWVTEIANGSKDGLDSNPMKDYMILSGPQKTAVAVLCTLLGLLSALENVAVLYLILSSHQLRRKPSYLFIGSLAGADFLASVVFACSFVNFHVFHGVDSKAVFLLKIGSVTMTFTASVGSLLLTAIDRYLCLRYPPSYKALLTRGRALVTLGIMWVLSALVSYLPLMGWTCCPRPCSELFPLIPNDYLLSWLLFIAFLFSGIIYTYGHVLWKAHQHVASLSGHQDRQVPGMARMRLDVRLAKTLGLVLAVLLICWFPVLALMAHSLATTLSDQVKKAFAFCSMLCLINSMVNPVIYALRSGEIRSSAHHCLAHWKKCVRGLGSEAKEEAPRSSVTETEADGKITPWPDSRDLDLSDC
T1 sequence (P21554 whole entry): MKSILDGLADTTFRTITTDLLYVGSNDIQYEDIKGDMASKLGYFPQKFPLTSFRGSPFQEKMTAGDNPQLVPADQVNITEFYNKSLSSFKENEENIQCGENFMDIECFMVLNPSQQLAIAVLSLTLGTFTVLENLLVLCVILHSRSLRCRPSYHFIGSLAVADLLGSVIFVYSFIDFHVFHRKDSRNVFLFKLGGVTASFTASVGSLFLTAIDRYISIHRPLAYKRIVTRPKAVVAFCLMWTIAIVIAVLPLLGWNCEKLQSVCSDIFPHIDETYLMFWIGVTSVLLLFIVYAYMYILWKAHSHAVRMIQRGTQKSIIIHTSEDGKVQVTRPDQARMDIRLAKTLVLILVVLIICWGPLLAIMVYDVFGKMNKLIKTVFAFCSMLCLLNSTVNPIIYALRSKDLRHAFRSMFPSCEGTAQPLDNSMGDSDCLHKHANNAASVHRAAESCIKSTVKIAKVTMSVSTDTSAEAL

At CB1 receptor [1] (setting [3]), `O=C(NN1CCCCC1)c1nn(-c2ccc(Cl)cc2Cl)c2c1CCCCC2Cc1cccc(Cl)c1` (centres unmarked) [Cpd 28, 8-(3-chloro-benzyl)-1-(2,4-dichloro-phenyl)-1,4,5,6,7,8-hexahydro-cycloheptapyrazole-3-carboxylic acid piperidin-1-ylamide] registered an EC50 of 0.05 µM. Besides, on CB1 receptor [2] (setting [4]), the IC50 is 0.1 µM. Also, the inhibition at 1 µM at CB1 receptor [2] (setting [5]) turned out to be 65%. The “CB2 receptor binding percent inhibition” value at CB2 receptor is reported as 11%.

`Cn1nc(C(=O)N[C@H]2C3(C)CCC(C3)C2(C)C)c2c1C(Cc1ccccc1Cl)CCCC2` (stereo partly drawn) [Cpd 40, 8-(2-chloro-benzyl)-1-methyl-1,4,5,6,7,8-hexahydro-cycloheptapyrazole-3-carboxylic acid [(2S)-1,3,3-trimethyl-bicyclo[2.2.1]hept-2-yl]-amide] had an EC50 on CB1 receptor [1] (CB1 Receptor Functional Agonist EC50, SK-N-MC cells, forskolin induced β-galactosidase activity) of 0.1 µM. The IC50 on CB1 receptor [2] (setting [4]) was 0.07 µM. Further, the inhibition at 1 µM on CB1 receptor [2] (setting [5]) was determined as 84%; at CB2 receptor (read-out: CB2 receptor binding percent inhibition, test concentration 1 μM (footnote 1)) it was 84%. In addition, the inhibition at 0.015 µM at CB2 receptor (read-out: CB2 receptor binding percent inhibition, test concentration 0.015 μM (footnote 7)) worked out at 65%. Besides, on CB2 receptor, the “CB2 receptor binding percent inhibition” value is 75%.

The compound `O=C(NC1CCC1)c1nn(-c2ccc(Cl)cc2Cl)c2c1CCCCC2Cc1cccc(F)c1` (centres unmarked) [Cpd 41, 1-(2,4-dichloro-phenyl)-8-(3-fluoro-benzyl)-1,4,5,6,7,8-hexahydro-cycloheptapyrazole-3-carboxylic acid cyclobutylamide] gave an EC50 at CB1 receptor [1] (setting [3]) of 0.1 µM. On CB1 receptor [2] (setting [4]), the IC50 is 0.5 µM. For the same compound, on CB1 receptor [2] (setting [5]), the inhibition at 1 µM is 68%. At CB2 receptor, the “CB2 receptor binding percent inhibition” value was 46%.

For the compound `CC12CCC(C1)C(C)(C)[C@H]2NC(=O)c1nn(-c2ccc(Cl)cc2Cl)c2c1CCCCC2Cc1cccc(F)c1` (stereo partly drawn) [Cpd 42, 1-(2,4-dichloro-phenyl)-8-(3-fluoro-benzyl)-1,4,5,6,7,8-hexahydro-cycloheptapyrazole-3-carboxylic acid [(2S)-1,3,3-trimethyl-bicyclo[2.2.1]hept-2-yl]-amide], the EC50 on CB1 receptor [1] (setting [6]) is 0.3 µM. Also, the IC50 is 0.3 µM at CB1 receptor [2] (setting [7]) and 0.3 µM at CB2 receptor (calculated by linear regression from percent inhibition at various test concentrations, read-out: Cannabinoid CB2 Receptor Binding IC50). The inhibition at 1 µM at CB1 receptor [2] (setting [5]) came to 65%; on CB2 receptor (setting [8]), 52%.

`C[C@H](NC(=O)c1nn(C2CCCCC2)c2c1CCCCC2Cc1cccc(F)c1)c1ccccc1` (stereo partly drawn) [Cpd 45, 1-cyclohexyl-8-(3-fluoro-benzyl)-1,4,5,6,7,8-hexahydro-cycloheptapyrazole-3-carboxylic acid [(1S)-1-phenyl-ethyl]-amide]: the EC50 at CB1 receptor [1] (setting [6]) amounted to 1.1 µM. On CB1 receptor [2] (setting [7]), the IC50 was 0.7 µM. The inhibition at 1 µM at CB1 receptor [2] (setting [5]) is 54%. Also, on CB2 receptor, the “CB2 receptor binding percent inhibition” value was 42%.

In the case of `C[C@H](NC(=O)c1nn(Cc2ccccc2)c2c1CCCCC2c1ccccc1)c1ccccc1` (stereo partly drawn) [Cpd 48, 1-benzyl-8-phenyl-1,4,5,6,7,8-hexahydro-cycloheptapyrazole-3-carboxylic acid [(1S)-1-phenyl-ethyl]-amide], the EC50 on CB1 receptor [1] (setting [6]) came out at 0.3 µM. Also, at CB1 receptor [2] (setting [7]), the IC50 is 0.3 µM. Moreover, the inhibition at 1 µM at CB1 receptor [2] (setting [5]) worked out at 63%. The “CB2 receptor binding percent inhibition” value at CB2 receptor is 42%.

As to `O=C(N[C@@H](CO)c1ccccc1)c1nn(C2CCCCC2)c2c1CCCCC2Cc1cccc(F)c1` (stereo partly drawn) [Cpd 55, 1-cyclohexyl-8-(3-fluoro-benzyl)-1,4,5,6,7,8-hexahydro-cycloheptapyrazole-3-carboxylic acid [(1R)-2-hydroxy-1-phenyl-ethyl]-amide], the EC50 at CB1 receptor [1] (setting [3]) was found to be 0.4 µM. The inhibition at 1 µM on CB1 receptor [2] (read-out: CB1 receptor binding percent inhibition) is 50%. For the same compound, the “CB2 receptor binding percent inhibition” value on CB2 receptor was 18%.

Turning to `CC12CCC(C1)C(C)(C)[C@H]2NC(=O)c1nn(C2CCCCC2)c2c1CCCCC2Cc1ccc(F)cc1` (stereo partly drawn) [Cpd 58, 1-cyclohexyl-8-(4-fluoro-benzyl)-1,4,5,6,7,8-hexahydro-cycloheptapyrazole-3-carboxylic acid [(2S)-1,3,3-trimethyl-bicyclo[2.2.1]hept-2-yl]-amide], at CB1 receptor [1] (SK-N-MC cells, forskolin induced β-galactosidase activity, read-out: CB1 Receptor Functional Agonist EC50), the EC50 amounted to 1.4 µM. Moreover, the IC50 at CB1 receptor [2] (setting [7]) is 0.2 µM. Also, the inhibition at 1 µM on CB1 receptor [2] (setting [5]) was found to be 75%; at CB2 receptor (setting [8]) it was 98%. The inhibition at 0.015 µM on CB2 receptor (test concentration 0.015 μM (footnote 7), read-out: CB2 receptor binding percent inhibition) is 65%. Besides, the “CB2 receptor binding percent inhibition” value at CB2 receptor turned out to be 74%.

`C[C@H](NS(=O)(=O)/C=C/c1nn(C2CCCCC2)c2c1CCCCC2Cc1cccc(F)c1)c1ccccc1` (stereo partly drawn) [Cpd 75, (2E)-2-[1-cyclohexyl-8-(3-fluoro-benzyl)-1,4,5,6,7,8-hexahydro-cycloheptapyrazol-3-yl]-ethenesulfonic acid [(1S)-1-phenyl-ethyl]-amide] registered an EC50 on CB1 receptor [1] (setting [3]) of 0.07 µM. Besides, the IC50 on CB1 receptor [2] (setting [4]) is 0.2 µM. The “CB1 receptor binding average percent inhibition” value at CB1 receptor [2] came to 77%. For the same compound, the “CB2 receptor binding percent inhibition” value on CB2 receptor is reported as 27%.

Turning to `COC(=O)[C@@H](Cc1ccc(F)cc1)NC(=O)c1nn(-c2ccc(Cl)cc2Cl)c2c1CCCC[C@@H]2Cc1cccc(F)c1` [Cpd 77, (2R)-2-{[(8R)-1-(2,4-dichloro-phenyl)-8-(3-fluoro-benzyl)-1,4,5,6,7,8-hexahydro-cycloheptapyrazole-3-carbonyl]-amino}-3-(4-fluoro-phenyl)-propionic acid methyl ester], the EC50 on CB1 receptor [1] (setting [3]) was found to be 0.1 µM. The inhibition at 1 µM at CB1 receptor [2] (setting [5]) came out at 44%. In addition, the “CB1 receptor binding percent inhibition” value at CB1 receptor [2] (test concentration not stated) is 51%. Also, at CB1 receptor [2], the “CB1 receptor binding average percent inhibition” value is reported as 57%. Besides, the “CB2 receptor binding percent inhibition” value at CB2 receptor is on record as 28%.

As to `COC(=O)[C@@H](Cc1ccc(F)cc1)NC(=O)c1nn(-c2ccc(Cl)cc2Cl)c2c1CCCC[C@H]2Cc1cccc(F)c1` [Cpd 78, (2R)-2-{[(8S)-1-(2,4-dichloro-phenyl)-8-(3-fluoro-benzyl)-1,4,5,6,7,8-hexahydro-cycloheptapyrazole-3-carbonyl]-amino}-3-(4-fluoro-phenyl)-propionic acid methyl ester], the response on CB1 receptor [1] (setting [3]) was half-maximal at 0.2 µM (EC50). Further, the IC50 on CB1 receptor [2] (setting [4]) is 0.4 µM. Moreover, the “CB1 receptor binding average percent inhibition” value at CB1 receptor [2] turned out to be 59%. The “CB2 receptor binding percent inhibition” value on CB2 receptor turned out to be 23%.

For the compound `CCOC(=O)[C@H]1C2C=CC(C2)[C@H]1NC(=O)c1nn(-c2ccc(Cl)cc2Cl)c2c1CCCCC2Cc1cccc(F)c1` (stereo partly drawn) [Cpd 79, (2S,3R)-3-{[1-(2,4-dichloro-phenyl)-8-(3-fluoro-benzyl)-1,4,5,6,7,8-hexahydro-cycloheptapyrazole-3-carbonyl]-amino}-bicyclo[2.2.1]hept-5-ene-2-carboxylic acid ethyl ester], a half-maximal response on CB1 receptor [1] (setting [3]) (EC50) required 0.5 µM. In addition, the “CB1 receptor binding average percent inhibition” value at CB1 receptor [2] is “^(5)37%”. For the same compound, the “CB2 receptor binding percent inhibition” value on CB2 receptor came to 29%.

Take `COC(=O)[C@@H](Cc1ccc(O)cc1)NC(=O)c1nn(-c2ccc(Cl)cc2Cl)c2c1CCCCC2Cc1cccc(F)c1` (stereo partly drawn) [Cpd 80, (2R)-2-{[1-(2,4-dichloro-phenyl)-8-(3-fluoro-benzyl)-1,4,5,6,7,8-hexahydro-cycloheptapyrazole-3-carbonyl]-amino}-3-(4-hydroxy-phenyl)-propionic acid methyl ester]: the midpoint of the response on CB1 receptor [1] (setting [3]), the EC50, lay at 0.06 µM. At CB1 receptor [2] (setting [4]), the IC50 is 0.7 µM. For the same compound, the “CB1 receptor binding average percent inhibition” value at CB1 receptor [2] turned out to be 51%. The “CB2 receptor binding percent inhibition” value at CB2 receptor is on record as 23%.

As for `COC(=O)[C@@H](Cc1ccc(O)cc1)NC(=O)c1nn(-c2ccc(Cl)cc2Cl)c2c1CCCCC2Cc1ccc(F)cc1` (stereo partly drawn) [Cpd 81, (2R)-2-{[1-(2,4-dichloro-phenyl)-8-(4-fluoro-benzyl)-1,4,5,6,7,8-hexahydro-cycloheptapyrazole-3-carbonyl]-amino}-3-(4-hydroxy-phenyl)-propionic acid methyl ester], on CB1 receptor [1] (setting [6]), the EC50 was 0.3 µM. The “CB1 receptor binding average percent inhibition” value at CB1 receptor [2] was “^(5)42%”. For the same compound, the “CB2 receptor binding percent inhibition” value on CB2 receptor was 28%.

These data come from patent US8378117B2 (priority 2005, dated 2013).
